This is an account of results in US11382921B2, “Use of compounds in preparation of a medicament for treatment of hemorrhagic stroke” (priority 2017, dated 2022).

For assay [1], the system named is C57B mouse model of cerebral hemorrhage. Put plainly: Determination of intracerebral hemorrhage (hemorrhage area, brain hemoglobin content) in collagenase-induced intracerebral hemorrhage model. It is filed as in vivo. As to conditions: C57B mice. The method, then: (§1) 112 clean grade health C57 male mice (8˜10 week, 20-22 g) were purchased from Beijing Vital River Laboratory Animal Technology Co. Ltd. Feeding conditions: 22° C.˜26° C., humidity 50%˜60%. The mice were grouped, fed with standard feed and purified water, and subjected to adaptive feeding for 1 week.
Establishment of Intracerebral hemorrhage model: After weighing body weight of mice, anesthesia was induced by 5% enflurane, and maintained by 2% enflurane mixed with 70% N2O and 30% O2. Mice were fixed on a stereotactic apparatus in the prone position and disinfected topically. The skin of the animals was incised to expose the skull for drilling. 0.3 μl of 0.35UVII collagenase was slowly injected with a micro sampler. The needle was kept for 5 min then slowly pulled out for 5 min, and the skull drilling was covered by bone glue. Animals were sutured, and subjected to routine disinfection. In the sham operation group, the needle was inserted in the same way, but without injection. The solvent or Triol was administered by intraperitoneal injection at 60 mg/kg 1 h after modeling. […]
chloral hydrated peritoneal was injected intraperitoneally for anesthesia at 24 hours after modeling. […] The hemoglobin content in the brain was measured with a hemoglobin detection kit.

The test system is the same in assay [2]. Briefly: Neurobehavioral scoring (circle test, adhesive paper test, modified Garcia score) in collagenase-induced intracerebral hemorrhage model. Particulars: C57B mice, 60 mg/kg i.p. 1 h after modeling. It is filed as in vivo. The method, then:
FIG. 2. […] A. Circle test; Adhesive paper test; B. Time duration for contacting adhesive paper; C. Time consumption to tear off adhesive paper; *p<0.05, ***p<0.001, n=12˜23 animals/group. con: normal; sham: sham-operated group; ICH: cerebral hemorrhage model; vehicle: solvent.
FIG. 3. […] Modified Garcia score (A-D) is used to evaluate somatosensory and motor function at 24 hours after cerebral hemorrhage in C57B mice: A. Nose hair contact test; B. Limb symmetry test; C. Forelimb walking test, D. Overall nerve function Score; n=12˜23 animals/group, *p<0.05, **p<0.01, ***p<0.001. con: normal; sham: sham-operated group; ICH: cerebral hemorrhage model; vehicle: solvent.
as §1
Establishment of Intracerebral hemorrhage model: After weighing body weight of mice, anesthesia was induced by 5% enflurane, and maintained by 2% enflurane mixed with 70% N2O and 30% O2. Mice were fixed on a stereotactic apparatus in the prone position and disinfected topically. The skin of the animals was incised to expose the skull for drilling. 0.3 μl of 0.35UVII collagenase was slowly injected with a micro sampler. The needle was kept for 5 min then slowly pulled out for 5 min, and the skull drilling was covered by bone glue. Animals were sutured, and subjected to routine disinfection. In the sham operation group, the needle was inserted in the same way, but without injection. The solvent or Triol was administered by intraperitoneal injection at 60 mg/kg 1 h after modeling.
C57 mice were divided into 5 groups using random number method, namely normal control group (n=12), sham operation group (n=12), cerebral hemorrhage group (n=26), cerebral hemorrhage+solvent intraperitoneal injection 1 h after modeling group (n=26), and cerebral hemorrhage+Triol intraperitoneal injection 1 h after modeling group (n=26).
The neurological function was measured 24 hours after the cerebral hemorrhage model was established.

With `C[C@@]12CCCC1C1C[C@@H](O)[C@@]3(O)C[C@@H](O)CC[C@]3(C)C1CC2` (stereo partly drawn) [Triol, 5α-androst-3β,5,6β-triol], in assay [1] (60 mg/kg i.p. 1 h after modeling, 24 h, vs cerebral hemorrhage model group, p<0.01 (FIG. 1B)), the “hemoglobin content of the hemorrhagic hemisphere (amount of hemorrhage)” value is “decreased significantly”. Besides, the “hemorrhage area (volume) of the hemisphere brain with collagenase injection” value in assay [1] (Triol 60 mg/kg intraperitoneal 1 h after modeling, 24 h later (FIG. 1A)) was “significantly reduced”. The “adhesive paper test: time consumption to remove adhesive paper” value in assay [2] (24 h, p<0.001 (FIG. 2C)) was “significantly reduced”. Also, the “modified Garcia score: beard touch avoidance (nose hair contact test)” value in assay [2] (24 h, p<0.001 (FIG. 3A)) is recorded as “significantly restored”. The “neurological function scores (overall, modified Garcia)” value in assay [2] (24 h, p<0.001 (FIG. 3D)) is “significantly improved”. In assay [2] (24 h, p<0.01 (FIG. 3B)), the “modified Garcia score: symmetry of the limbs' movement” value is reported as “significantly improved”. For the same molecule, the “adhesive paper test: time duration for contacting adhesive paper” value in assay [2] (24 h, p<0.05 (FIG. 2B)) is listed as “significantly reduced”. Also, the “modified Garcia score: forelimb walking” value in assay [2] (24 h, p<0.05 (FIG. 3C)) was “significantly improved”. In addition, the “circle test: time taken to go out of the center of the circle to any point of the circle edge” value in assay [2] (24 h after cerebral hemorrhage (FIG. 2A)) was “has a tendency to decrease”.
